Experimental data: PubChem BioAssay AID2060625 (Molecular Pharmacology Branch, DTP, NCI, 2025)

system: 186277-243-T-J2-PDC spheroids with HUVEC/MSC, viability; experiment: Anticancer human tumor 186277-243-T-J2-PDC patient-derived colon adenocarcinoma cell line growth inhibition [CLK]; details: second compound 0.316 µM; first compound 10 µM; active compounds read low
Summary of the method: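 Patient-derived tumor cells grown as complex spheroids with HUVEC endothelial cells and mesenchymal stem cells, treated with drug combinations. Concentrations descend in half-log steps from near clinical Cmax, or from 10 microM if Cmax unknown.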
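Also: compound exposure lasted seven days before readout; 100% = DMSO vehicle control wells.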

For `CCCS(=O)(=O)Nc1ccc(F)c(C(=O)c2c[nH]c3ncc(-c4ccc(Cl)cc4)cc23)c1F` + CNC(=O)c1ccc(Nc2nc(OC3CCCC3)c3c(-c4ccc5nc(C)oc5c4)c[nH]c3n2)c(OC)c1, which viability, T/C is on record?
Its viability, T/C is 25.9%.

How did the viability, T/C turn out when `O=C(c1cc(Cc2n[nH]c(=O)c3ccccc23)ccc1F)N1CCN(C(=O)C2CC2)CC1` + CN1CCN(c2cc(C(=O)Nc3cc4cc(-c5cnn(C)c5)ccc4cn3)ccn2)CC1 was run?
Its viability, T/C is 21.7%.

same assay, conditions: second compound 1 µM; first compound 0.00316 µM; active compounds read low

For `CCc1c2c(nc3ccc(O)cc13)-c1cc3c(c(=O)n1C2)COC(=O)[C@]3(O)CC` + CN1CCN(c2cc(C(=O)Nc3cc4cc(-c5cnn(C)c5)ccc4cn3)ccn2)CC1, which viability, T/C is on record?
Its viability, T/C is 1.11%.

same assay, conditions: second compound 1 µM; first compound 0.01 µM; active compounds read low

Which viability, T/C does the source give for `CCc1c2c(nc3ccc(O)cc13)-c1cc3c(c(=O)n1C2)COC(=O)[C@]3(O)CC` + CN1CCN(c2cc(C(=O)Nc3cc4cc(-c5cnn(C)c5)ccc4cn3)ccn2)CC1 here?
Its viability, T/C is 3.1%.

same assay, conditions: second compound 1 µM; first compound 0.0316 µM; active compounds read low

For `CCc1c2c(nc3ccc(O)cc13)-c1cc3c(c(=O)n1C2)COC(=O)[C@]3(O)CC` + CN1CCN(c2cc(C(=O)Nc3cc4cc(-c5cnn(C)c5)ccc4cn3)ccn2)CC1, which viability, T/C is on record?
The viability, T/C was 1.69%.

`CC1COCCN1c1cc(C2(S(C)(=N)=O)CC2)nc(-c2ccnc3[nH]ccc23)n1` (stereo not given) + CNC(=O)c1ccc(Nc2nc(OC3CCCC3)c3c(-c4ccc5nc(C)oc5c4)c[nH]c3n2)c(OC)c1 was tested. Which viability, T/C did it give?
The viability, T/C was 35.6%.

How did the viability, T/C turn out when `CCCS(=O)(=O)Nc1ccc(F)c(C(=O)c2c[nH]c3ncc(-c4ccc(Cl)cc4)cc23)c1F` + CNC(=O)c1ccc(Nc2nc(OC3CCCC3)c3c(-c4ccc5nc(C)oc5c4)c[nH]c3n2)c(OC)c1 was run?
The viability, T/C was 38.9%.

Which viability, T/C does the source give for `O=C(c1cc(Cc2n[nH]c(=O)c3ccccc23)ccc1F)N1CCN(C(=O)C2CC2)CC1` + CN1CCN(c2cc(C(=O)Nc3cc4cc(-c5cnn(C)c5)ccc4cn3)ccn2)CC1 here?
The viability, T/C was 0.33%.

same assay, conditions: second compound 1 µM; first compound 0.1 µM; active compounds read low

How did the viability, T/C turn out when `CCc1c2c(nc3ccc(O)cc13)-c1cc3c(c(=O)n1C2)COC(=O)[C@]3(O)CC` + CN1CCN(c2cc(C(=O)Nc3cc4cc(-c5cnn(C)c5)ccc4cn3)ccn2)CC1 was run?
The viability, T/C was 0.66%.

Which viability, T/C does the source give for `CC1COCCN1c1cc(C2(S(C)(=N)=O)CC2)nc(-c2ccnc3[nH]ccc23)n1` (stereo not given) + CNC(=O)c1ccc(Nc2nc(OC3CCCC3)c3c(-c4ccc5nc(C)oc5c4)c[nH]c3n2)c(OC)c1 here?
Its viability, T/C is 33.4%.

For `CCCS(=O)(=O)Nc1ccc(F)c(C(=O)c2c[nH]c3ncc(-c4ccc(Cl)cc4)cc23)c1F` + CNC(=O)c1ccc(Nc2nc(OC3CCCC3)c3c(-c4ccc5nc(C)oc5c4)c[nH]c3n2)c(OC)c1, which viability, T/C is on record?
The viability, T/C was 38.2%.

For `O=C(c1cc(Cc2n[nH]c(=O)c3ccccc23)ccc1F)N1CCN(C(=O)C2CC2)CC1` + CN1CCN(c2cc(C(=O)Nc3cc4cc(-c5cnn(C)c5)ccc4cn3)ccn2)CC1, which viability, T/C is on record?
The viability, T/C was 0.74%.

same assay, conditions: second compound 1 µM; first compound 0.316 µM; active compounds read low

For `CCc1c2c(nc3ccc(O)cc13)-c1cc3c(c(=O)n1C2)COC(=O)[C@]3(O)CC` + CN1CCN(c2cc(C(=O)Nc3cc4cc(-c5cnn(C)c5)ccc4cn3)ccn2)CC1, which viability, T/C is on record?
Its viability, T/C is 1.14%.

How did the viability, T/C turn out when `CC1COCCN1c1cc(C2(S(C)(=N)=O)CC2)nc(-c2ccnc3[nH]ccc23)n1` (stereo not given) + CNC(=O)c1ccc(Nc2nc(OC3CCCC3)c3c(-c4ccc5nc(C)oc5c4)c[nH]c3n2)c(OC)c1 was run?
Its viability, T/C is 31.2%.

`CCCS(=O)(=O)Nc1ccc(F)c(C(=O)c2c[nH]c3ncc(-c4ccc(Cl)cc4)cc23)c1F` + CNC(=O)c1ccc(Nc2nc(OC3CCCC3)c3c(-c4ccc5nc(C)oc5c4)c[nH]c3n2)c(OC)c1 was tested. Which viability, T/C did it give?
Its viability, T/C is 39.6%.

How did the viability, T/C turn out when `O=C(c1cc(Cc2n[nH]c(=O)c3ccccc23)ccc1F)N1CCN(C(=O)C2CC2)CC1` + CN1CCN(c2cc(C(=O)Nc3cc4cc(-c5cnn(C)c5)ccc4cn3)ccn2)CC1 was run?
Its viability, T/C is 2.04%.

same assay, conditions: second compound 1 µM; first compound 1 µM; active compounds read low

For `CCc1c2c(nc3ccc(O)cc13)-c1cc3c(c(=O)n1C2)COC(=O)[C@]3(O)CC` + CN1CCN(c2cc(C(=O)Nc3cc4cc(-c5cnn(C)c5)ccc4cn3)ccn2)CC1, which viability, T/C is on record?
Its viability, T/C is 1.75%.

For `CC1COCCN1c1cc(C2(S(C)(=N)=O)CC2)nc(-c2ccnc3[nH]ccc23)n1` (stereo not given) + CNC(=O)c1ccc(Nc2nc(OC3CCCC3)c3c(-c4ccc5nc(C)oc5c4)c[nH]c3n2)c(OC)c1, which viability, T/C is on record?
Its viability, T/C is 22.9%.

For `CCCS(=O)(=O)Nc1ccc(F)c(C(=O)c2c[nH]c3ncc(-c4ccc(Cl)cc4)cc23)c1F` + CNC(=O)c1ccc(Nc2nc(OC3CCCC3)c3c(-c4ccc5nc(C)oc5c4)c[nH]c3n2)c(OC)c1, which viability, T/C is on record?
The viability, T/C was 44.6%.

For `O=C(c1cc(Cc2n[nH]c(=O)c3ccccc23)ccc1F)N1CCN(C(=O)C2CC2)CC1` + CN1CCN(c2cc(C(=O)Nc3cc4cc(-c5cnn(C)c5)ccc4cn3)ccn2)CC1, which viability, T/C is on record?
Its viability, T/C is 0.29%.

same assay, conditions: second compound 1 µM; first compound 3.16 µM; active compounds read low

With `CC1COCCN1c1cc(C2(S(C)(=N)=O)CC2)nc(-c2ccnc3[nH]ccc23)n1` (stereo not given) + CNC(=O)c1ccc(Nc2nc(OC3CCCC3)c3c(-c4ccc5nc(C)oc5c4)c[nH]c3n2)c(OC)c1 as the compound, how does the viability, T/C read?
The viability, T/C was 10.2%.

How did the viability, T/C turn out when `CCCS(=O)(=O)Nc1ccc(F)c(C(=O)c2c[nH]c3ncc(-c4ccc(Cl)cc4)cc23)c1F` + CNC(=O)c1ccc(Nc2nc(OC3CCCC3)c3c(-c4ccc5nc(C)oc5c4)c[nH]c3n2)c(OC)c1 was run?
The viability, T/C was 36.4%.

Which viability, T/C does the source give for `O=C(c1cc(Cc2n[nH]c(=O)c3ccccc23)ccc1F)N1CCN(C(=O)C2CC2)CC1` + CN1CCN(c2cc(C(=O)Nc3cc4cc(-c5cnn(C)c5)ccc4cn3)ccn2)CC1 here?
Its viability, T/C is 1.71%.

same assay, conditions: second compound 1 µM; first compound 10 µM; active compounds read low

For `CC1COCCN1c1cc(C2(S(C)(=N)=O)CC2)nc(-c2ccnc3[nH]ccc23)n1` (stereo not given) + CNC(=O)c1ccc(Nc2nc(OC3CCCC3)c3c(-c4ccc5nc(C)oc5c4)c[nH]c3n2)c(OC)c1, which viability, T/C is on record?
Its viability, T/C is 5.07%.

With `CCCS(=O)(=O)Nc1ccc(F)c(C(=O)c2c[nH]c3ncc(-c4ccc(Cl)cc4)cc23)c1F` + CNC(=O)c1ccc(Nc2nc(OC3CCCC3)c3c(-c4ccc5nc(C)oc5c4)c[nH]c3n2)c(OC)c1 as the compound, how does the viability, T/C read?
The viability, T/C was 27.3%.
